*1 amine or outer side, *2 acyl side, *3 side chain or, on linkers, in order; H or OH if unused. Where a SMILES comes first, the peptide text is derived from it. Side-chain parts run from the residue outwards. [ ]: non-standard residue; d: D form. The star is where a group is joined. C18 diacid = O=C(O)CCCCCCCCCCCCCCCCC(=O)*; γGlu = O=C(O)[C@H](CCC(=O)[*:2])N[*:1]; Nle = CCCC[C@H](N)C(=O)O; Aib = CC(C)(N)C(=O)O
Target: T1, human GIP receptor (Homo sapiens, UniProt P48546)
T1 construct: expressed in transfected cells; host or cells: BHK (parent line BHKTS13), BHK CRE luc2P hGIPR clone #5
T1 sequence (P48546 22-466): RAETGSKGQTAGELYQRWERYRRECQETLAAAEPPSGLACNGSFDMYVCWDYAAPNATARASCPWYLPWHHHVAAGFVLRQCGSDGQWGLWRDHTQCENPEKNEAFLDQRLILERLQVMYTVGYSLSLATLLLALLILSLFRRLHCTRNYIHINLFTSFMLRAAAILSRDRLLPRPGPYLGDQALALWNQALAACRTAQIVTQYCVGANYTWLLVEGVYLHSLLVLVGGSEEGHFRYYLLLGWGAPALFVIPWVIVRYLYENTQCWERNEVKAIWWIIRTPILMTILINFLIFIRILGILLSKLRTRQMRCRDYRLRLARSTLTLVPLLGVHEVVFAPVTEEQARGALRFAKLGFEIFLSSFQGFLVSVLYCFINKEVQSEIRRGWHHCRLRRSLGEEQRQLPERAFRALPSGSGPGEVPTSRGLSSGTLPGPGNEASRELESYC
Experiment: In vitro potency (CRE luciferase; whole cells), BHK CRE luc2P hGIPR
Type: cell-based
Conditions: 0.2% HSA
Procedure: In Vitro Potency (CRE Luciferase; Whole Cells)
The in vitro potency is the measure of human GIP, GLP-1 or glucagon receptor activation, respectively, in a whole cell assay.
In vitro potency was determined by measuring the response of the human GIP, GLP-1 or glucagon receptor in a reporter gene assay in individual cell lines. […] When the respective receptor is activated it results in the production of cAMP, which in turn results in the luciferase protein being expressed. When assay incubation is completed the luciferase substrate (luciferin) is added and the enzyme converts luciferin to oxyluciferin to produce bioluminescence. The luminescence is measured as the readout for the assay.
The cells were derived from a clone containing the CRE luciferase element and were established by further transfection with the respective receptor to obtain the current clone.
The cells were cultured at 5% CO2 in Cell Culture Medium. They were aliquoted and stored in liquid nitrogen. The cells were kept in passage and were seeded out the day before each assay.
The Assay Buffer consisted of 1% ovalbumin and 0.1% Pluronic F-68 in Assay Medium with the addition of human serum albumin at twice the indicated concentrations.
1) Cells were plated at 5000 cells/well and incubated overnight.
2) Cells were washed three times in PBS.
3) Assay Medium (50 μl aliquot) with or without serum albumin was added to each well in the assay plate.
4) Stocks of the test compounds and reference compounds were diluted to a concentration of 0.2 μM in Assay Buffer. […] 8) The cells were washed three times with PBS plus some liquid in each well. 9) A 100 μl aliquot of steadylite plus reagent was added to each well of the assay plate (reagent was light sensitive). 10) Each assay plate was covered with aluminum foil to protect it from light and shaken for 30 min at room temperature. 11) Each assay plate was read in a microtiter plate reader. Calculations and Results
The data from the microtiter plate reader was transferred to GraphPad Prism software. The software performs a non-linear regression (log(agonist) vs response).
A minimum of two replicates was measured for each sample. The reported values are averages of the replicates.

SMILES | EC50 [nM]
CCCC[C@H](NC(=O)[C@H](C)NC(=O)[C@@H](NC(=O)[C@H](CO)NC(=O)[C@H](Cc1ccc(O)cc1)NC(=O)[C@H](CC(=O)O)NC(=O)[C@H](CO)NC(=O)[C@@H](NC(=O)[C@H](Cc1ccccc1)NC(=O)[C@@H](NC(=O)CNC(=O)[C@H](CCC(=O)O)NC(=O)C(C)(C)NC(=O)[C@@H](N)Cc1ccc(O)cc1)[C@@H](C)O)[C@@H](C)CC)[C@@H](C)CC)C(=O)N[C@@H](CC(=O)O)C(=O)N[C@@H](CCCCN)C(=O)N[C@H](C(=O)N[C@@H](CCCNC(=N)N)C(=O)N[C@@H](CCC(N)=O)C(=O)N[C@@H](CCC(N)=O)C(=O)N[C@@H](CC(=O)O)C(=O)N[C@@H](Cc1ccccc1)C(=O)N[C@H](C(=O)N[C@@H](CCCCNC(=O)CC[C@H](NC(=O)CC[C@H](NC(=O)CC[C@H](NC(=O)CCCCCCCCCCCCCCCCC(=O)O)C(=O)O)C(=O)O)C(=O)O)C(=O)N[C@@H](Cc1c[nH]c2ccccc12)C(=O)N[C@@H](CC(C)C)C(=O)N[C@@H](CC(C)C)C(=O)N[C@@H](C)C(=O)N[C@@H](CCC(N)=O)C(=O)N[C@@H](CCCCN)C(=O)NCC(=O)N[C@@H](CCCCN)C(=O)N[C@@H](CCC(=O)O)C(=O)N[C@@H](CC(N)=O)C(=O)N[C@@H](CC(=O)O)C(=O)N[C@@H](Cc1c[nH]c2ccccc12)C(=O)N[C@@H](CCCCN)C(=O)N[C@@H](Cc1c[nH]cn1)C(=O)N[C@@H](CC(N)=O)C(=O)N[C@H](C(=O)N[C@H](C(=O)N[C@@H](CCC(N)=O)C(=O)O)[C@@H](C)O)[C@@H](C)CC)C(C)C)[C@@H](C)CC [Compound 34, N{Epsilon-24}-[(4S)-4-carboxy-4-[[(4S)-4-carboxy-4-[[(4S)-4-carboxy-4-(17-carboxyheptadecanoylamino)butanoyl]amino]butanoyl]amino]butanoyl]-[Aib2,Nle14,Arg18,Lys24,Glu33]-hGIP] | 0.0202
CCCC[C@H](NC(=O)[C@H](C)NC(=O)[C@@H](NC(=O)[C@H](CO)NC(=O)[C@H](Cc1ccc(O)cc1)NC(=O)[C@H](CC(=O)O)NC(=O)[C@H](CO)NC(=O)[C@@H](NC(=O)[C@H](Cc1ccccc1)NC(=O)[C@@H](NC(=O)CNC(=O)[C@H](CCC(=O)O)NC(=O)C(C)(C)NC(=O)[C@@H](N)Cc1ccc(O)cc1)[C@@H](C)O)[C@@H](C)CC)[C@@H](C)CC)C(=O)N[C@@H](CC(=O)O)C(=O)N[C@@H](CCCCN)C(=O)N[C@H](C(=O)N[C@@H](Cc1c[nH]cn1)C(=O)N[C@@H](CCC(N)=O)C(=O)N[C@@H](CCC(N)=O)C(=O)N[C@@H](CC(=O)O)C(=O)N[C@@H](Cc1ccccc1)C(=O)N[C@H](C(=O)N[C@@H](CCCCNC(=O)CC[C@H](NC(=O)CC[C@H](NC(=O)CC[C@H](NC(=O)CCCCCCCCCCCCCCCCC(=O)O)C(=O)O)C(=O)O)C(=O)O)C(=O)N[C@@H](Cc1c[nH]c2ccccc12)C(=O)N[C@@H](CC(C)C)C(=O)N[C@@H](CC(C)C)C(=O)N[C@@H](C)C(=O)N[C@@H](CCC(N)=O)C(=O)N[C@@H](CCCCN)C(=O)NCC(=O)O)C(C)C)[C@@H](C)CC [Compound 2, N{Epsilon-24}-[(4S)-4-carboxy-4-[[(4S)-4-carboxy-4-[[(4S)-4-carboxy-4-(17-carboxyheptadecanoylamino)butanoyl]amino]butanoyl]amino]butanoyl]-[Aib2,Nle14,Lys24]-hGIP(1-31)] (H-Y[Aib]EGTFISDYSIA[Nle]DKIHQQDFVK([γGlu-γGlu-γGlu-C18 diacid])WLLAQKG-OH) | 0.0499

From patent US10604555B2, “GIP derivatives and uses thereof” (priority 2018, dated 2020)
